In patent publication US6737383B1, “Herbicidal oxadiazolidines” (priority 1999, dated 2004):

Experiments:
[1] = system: Green foxtail; assay: Test D green foxtail; type: in vivo
How it was run: (§1)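 Visual injury ratings, 0 = no injury to 100 = complete control, taken 14 to 21 days after treatment. Test chemicals were in a surfactant-containing non-phytotoxic solvent; preemergence treatments went onto the sandy loam surface of seeded greenhouse pots within one day of sowing.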

[2] = system: itchgrass; assay: Test D itchgrass; type: in vivo, Rottboellia exaltata; details: Preemergence, 0 to 100 scale
How it was run: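 Scoring used a 0–100 visual injury scale, with 0 meaning no effect and 100 complete control, assessed 14–21 days after application alongside untreated pots. Preemergence treatments went onto sandy loam surfaces of separately potted seeds within a day of sowing.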

[3] = system: tall mallow; assay: Test D tall mallow; type: in vivo, Malva sylvestris; details: Preemergence, 0 to 100 scale
How it was run: as §1

[4] = system: Green foxtail; assay: Test D green foxtail; type: in vivo; details: Preemergence, 0 to 100 scale
How it was run: as §1

[5] = system: common ragweed; assay: Test D common ragweed; type: in vivo, Ambrosia elatior; details: Preemergence, 0 to 100 scale
How it was run: as §1

[6] = system: Johnson grass; assay: Test D Johnson grass; type: in vivo, Sorghum halepense; details: Preemergence, 0 to 100 scale
How it was run: as §1

[7] = system: dallisgrass; assay: Test D dallisgrass; type: in vivo, Paspalum dilatatum; details: Preemergence, 0 to 100 scale
How it was run: as §1

[8] = system: Alexandergrass; assay: Test D Alexandergrass; type: in vivo, Brachiaria plantaginea; details: Preemergence, 0 to 100 scale
How it was run: as §1

[9] = system: common groundsel; assay: Test D common groundsel; type: in vivo, Senecio vulgaris; details: Preemergence, 0 to 100 scale
How it was run: as §1

[10] = system: large crabgrass; assay: Test D large crabgrass; type: in vivo, Digitaria sanguinalis; details: Preemergence, 0 to 100 scale
How it was run: as §1

[11] = system: guineagrass; assay: Test D guineagrass; type: in vivo, Panicum maximum; details: Preemergence, 0 to 100 scale
How it was run: as §1

[12] = system: bermuda-grass; assay: Test D bermudagrass; type: in vivo, Cynodon dactylon; details: Preemergence, 0 to 100 scale
How it was run: as §1

[13] = system: surinam grass; assay: Test D surinam grass; type: in vivo, Brachiaria decumbens; details: Preemergence, 0 to 100 scale
How it was run: as §1

[14] = system: pitted morningglory; assay: Test D pitted morningglory; type: in vivo, Ipomoea lacunosa; details: Preemergence, 0 to 100 scale
How it was run: as §1

[15] = system: Spanishneedles; assay: Test D Spanishneedles; type: in vivo, Bidens bipinnata; details: Preemergence, 0 to 100 scale
How it was run: as §1

[16] = Rate 64 g/ha, Preemergence; 0 to 100 scale, 0 no injury, 100 complete control
[17] = Rate 125 g/ha, Preemergence; 0 to 100 scale, 0 no injury, 100 complete control
[18] = Rate 16 g/ha, 0 no injury, 100 complete control
[19] = Rate 32 g/ha, 0 no injury, 100 complete control
[20] = Rate 64 g/ha, 0 no injury, 100 complete control
[21] = Rate 125 g/ha, 0 no injury, 100 complete control

`C=CCn1c(=O)on(C(=O)N(c2ccccc2)C(C)C)c1=O` [Compound 93] was tested, and the “Plant response rating, Green foxtail” value ([1]; Preemergence; Rate 16 g/ha; 0 to 100 scale, 0 no injury, 100 complete control) was 65, the “Plant response rating, Green foxtail” value ([1]; Preemergence; Rate 32 g/ha; 0 to 100 scale, 0 no injury, 100 complete control) was 75 and the “Plant response rating, Green foxtail” value ([1]; Rate 16 g/ha; Preemergence; 0 to 100 scale, 0 no injury, 100 complete control) was 65. The “Plant response rating, Green foxtail” value ([1]; Rate 32 g/ha; Preemergence; 0 to 100 scale, 0 no injury, 100 complete control) was 0, the “Green foxtail plant response rating” value [1, 16] was 100 and the “Plant response rating, Green foxtail” value [1, 16] was 100. The “Green foxtail plant response rating” value [1, 17] was 100, the “Plant response rating, Green foxtail” value [1, 17] was 100 and the “Plant response rating, Green foxtail” value ([1]; Rate 250 g/ha; Preemergence; 0 to 100 scale) was 100. For the same compound, the “Plant response rating, Green foxtail” value ([1]; Rate 500 g/ha, Preemergence; 0 to 100 scale) was 100, the “Plant response rating, Itchgrass” value [2, 18] was 50 and the “Plant response rating, Itchgrass” value [2, 19] was 60. The “Plant response rating, Itchgrass” value [2, 20] was 60, the “Plant response rating, Itchgrass” value [2, 21] was 75 and the “Plant response rating, Itchgrass” value ([2]; Rate 250 g/ha) was 90. For the same compound, the “Plant response rating, Itchgrass” value ([2]; Rate 500 g/ha) was 100, the “Plant response rating, Tall Mallow” value [3, 18] was 0 and the “Plant response rating, Tall Mallow” value [3, 19] was 0. For the same compound, the “Tall Mallow plant response rating” value [3, 20] was 0, the “Tall Mallow plant response rating” value [3, 21] was 30 and the “Plant response rating, Tall Mallow” value ([3]; Rate 250 g/ha) was 90. The “Plant response rating, Tall Mallow” value ([3]; Rate 500 g/ha) was 98, the “Plant response rating, Green foxtail” value ([4]; Rate 250 g/ha) was 100 and the “Plant response rating, Green foxtail” value ([4]; Rate 500 g/ha) was 100. For the same compound, the “Plant response rating, C. ragweed” value [5, 18] was 0, the “Plant response rating, C. ragweed” value [5, 19] was 0 and the “Plant response rating, C. ragweed” value [5, 20] was 0. The “Plant response rating, C. ragweed” value [5, 21] was 10, the “Plant response rating, C. ragweed” value ([5]; Rate 250 g/ha) was 0 and the “Plant response rating, C. ragweed” value ([5]; Rate 500 g/ha) was 80. The “Plant response rating, Johnsongrass” value [6, 18] was 0, the “Plant response rating, Johnsongrass” value [6, 19] was 0 and the “Plant response rating, Johnsongrass” value [6, 20] was 40. For the same compound, the “Plant response rating, Johnsongrass” value [6, 21] was 75, the “Plant response rating, Johnsongrass” value ([6]; Rate 250 g/ha) was 95 and the “Plant response rating, Johnsongrass” value ([6]; Rate 500 g/ha) was 85. For the same compound, the “Plant response rating, Dallisgrass” value [7, 18] was 60, the “Plant response rating, Dallisgrass” value [7, 19] was 98 and the “Plant response rating, Dallisgrass” value [7, 20] was 98. The “Plant response rating, Dallisgrass” value [7, 21] was 98, the “Plant response rating, Dallisgrass” value ([7]; Rate 250 g/ha) was 100 and the “Plant response rating, Dallisgrass” value ([7]; Rate 500 g/ha) was 100. For the same compound, the “Plant response rating, Alexandergrass” value [8, 18] was 0, the “Plant response rating, Alexandergrass” value [8, 19] was 10 and the “Plant response rating, Alexandergrass” value [8, 20] was 30. For the same compound, the “Plant response rating, Alexandergrass” value [8, 21] was 85, the “Plant response rating, Alexandergrass” value ([8]; Rate 250 g/ha) was 100 and the “Plant response rating, Alexandergrass” value ([8]; Rate 500 g/ha) was 100. For the same compound, the “Plant response rating, Com. groundsel” value [9, 18] was 0, the “Plant response rating, Com. groundsel” value [9, 19] was 0 and the “Plant response rating, Com. groundsel” value [9, 20] was 0. For the same compound, the “Plant response rating, Com. groundsel” value [9, 21] was 35, the “Plant response rating, Com. groundsel” value ([9]; Rate 250 g/ha) was 0 and the “Plant response rating, Com. groundsel” value ([9]; Rate 500 g/ha) was 100. The “Plant response rating, Large crabgrass” value [10, 18] was 90, the “Plant response rating, Large crabgrass” value [10, 19] was 98 and the “Plant response rating, Large crabgrass” value [10, 20] was 98. For the same compound, the “Plant response rating, Large crabgrass” value [10, 21] was 100, the “Plant response rating, Large crabgrass” value ([10]; Rate 250 g/ha) was 100 and the “Plant response rating, Large crabgrass” value ([10]; Rate 500 g/ha) was 100. For the same compound, the “Plant response rating, Guineagrass” value [11, 18] was 65, the “Plant response rating, Guineagrass” value [11, 19] was 75 and the “Plant response rating, Guineagrass” value [11, 20] was 100. The “Plant response rating, Guineagrass” value [11, 21] was 100, the “Plant response rating, Guineagrass” value ([11]; Rate 250 g/ha) was 100 and the “Plant response rating, Guineagrass” value ([11]; Rate 500 g/ha) was 100. For the same compound, the “Plant response rating, Bermudagrass” value [12, 18] was 80, the “Plant response rating, Bermudagrass” value [12, 19] was 80 and the “Plant response rating, Bermudagrass” value [12, 20] was 90. The “Plant response rating, Bermudagrass” value [12, 21] was 100, the “Plant response rating, Bermudagrass” value ([12]; Rate 250 g/ha) was 100 and the “Plant response rating, Bermudagrass” value ([12]; Rate 500 g/ha) was 100. For the same compound, the “Plant response rating, Surinam grass” value [13, 18] was 0, the “Plant response rating, Surinam grass” value [13, 19] was 0 and the “Surinam grass plant response rating” value [13, 20] was 85. For the same compound, the “Surinam grass plant response rating” value [13, 21] was 90, the “Plant response rating, Surinam grass” value ([13]; Rate 250 g/ha) was 98 and the “Plant response rating, Surinam grass” value ([13]; Rate 500 g/ha) was 100. For the same compound, the “Plant response rating, P. morninglory” value [14, 18] was 0, the “Plant response rating, P. morninglory” value [14, 19] was 0 and the “Plant response rating, P. morninglory” value [14, 20] was 0. The “Plant response rating, P. morninglory” value [14, 21] was 0, the “Plant response rating, P. morninglory” value ([14]; Rate 250 g/ha) was 0 and the “Plant response rating, P. morninglory” value ([14]; Rate 500 g/ha) was 20. The “Plant response rating, Spanishneedles” value [15, 18] was 0, the “Plant response rating, Spanishneedles” value [15, 19] was 0 and the “Spanishneedles plant response rating” value [15, 20] was 0. For the same compound, the “Spanishneedles plant response rating” value [15, 21] was 10 and the “Plant response rating, Spanishneedles” value ([15]; Rate 500 g/ha) was 45.
